Laboratory results from US20130079345A1, “[…] ACTIVE DISUBSTITUTED TRIAZINE DERIVATIVES” (BAYER INTELLECTUAL PROPERTY GMBH, priority 2010, published 2013).

Assays:
CDK9/Cyclin T1 = target: T1, CDK9/Cyclin T1 (Homo sapiens, UniProt P50750); assay: LanthaScreen Eu Kinase Binding Assay, CDK9/Cyclin T1; conditions: tracer 236, read-out: Affinity (Kd) CDK9/Cyclin T1
T1 construct: purchased Invitrogen
Experimental: (§1) This protocol describes how the LanthaScreen Eu Kinase Binding Assay was performed to determine dissociation constants (Kd) of compounds of general formula (I) and CDK/Cyclin complexes. The principle behind this assay is based upon the binding and displacement of an Alexa Fluor 647-labeled tracer, which binds to the active site of kinases. Binding of the tracer to the kinase is detected using a Eu-labeled antibody. Simultaneous binding of both the tracer and antibody to the kinase gives rise to a FRET-signal. Binding of an inhibitor to the kinase competes for binding with the tracer, resulting in a loss of FRET.
(§2) The compounds of general formula (I) summarized in Table 1 were diluted from a 10 mM DMSO stock solution 1:10 in a total volume of 15 μL DMSO. This compound predilution was then serial diluted 1:3 over 8 steps in DMSO and briefly spun down. Each compound solution was now diluted 1:33.33 in kinase buffer (HEPES: 20 mM, pH: 8.0; MgCl2: 10 mM; DTT: 1 mM; Brij-35: 0.01%), mixed thoroughly and spun down. For every sample, 5 μL of the diluted compound were mixed with 5 μL tracer working solution (e.g. 60 nM tracer 236 in kinase buffer for CDK2/Cyclin A) and 5 μL CDK/Cyclin/Anti-GST-AB-working solution (e.g. 15 nM CDK2/Cyclin A, 1:250 dilution of Anti-GST-AB in kinase buffer) in a well of a small volume 384 well plate (Corning Incorporated, Corning, N.Y., USA; order no. 3673). […] For positive controls, in each well 5 μL of DMSO working solution (3% DMSO diluted in kinase buffer) was mixed with 5 μL CDK/Cyclin/Anti-GST-AB-working solution: (e.g. 15 nM CDK2/Cyclin A, 1:250 dilution of Anti-GST-AB in kinase buffer) and 5 μL Tracer working solution (e.g. 60 nM Tracer 236 in kinase buffer for CDK2/Cyclin A). Positive and negative controls were calculated from at least 8 different sample wells. The 384 well plates were mixed in a Teleshaker plate mixer (Beckman Coulter, Brea, Calif., USA) at 2000 rpm for 40 sec, and incubated for 1 h at room temperature before reading. The FRET signal was measured at 340 nm excitation, 665 nm and 615 nm emission (for the kinase tracer and LanthaScreen Eu-AB, respectively) with an Envision spectrophotometer (Perkin Elmer, Waltham, Mass., USA) with 50 μs delay and 300 μs integration time. Kd values were determined from the sigmoidal dose response curves with the software Quattro Workflow (Quattro GmbH, Munich, Germany).

CDK7/CyclinH/Mat1 [1] = target: T2, CDK7/CyclinH/Mat1 (Homo sapiens, UniProt P50613); assay: LanthaScreen Eu Kinase Binding Assay, CDK7; conditions: tracer 236, read-out: Affinity (Kd) CDK7
T2 construct: purchased Carna Biosciences
T2 sequence (P50613 whole entry): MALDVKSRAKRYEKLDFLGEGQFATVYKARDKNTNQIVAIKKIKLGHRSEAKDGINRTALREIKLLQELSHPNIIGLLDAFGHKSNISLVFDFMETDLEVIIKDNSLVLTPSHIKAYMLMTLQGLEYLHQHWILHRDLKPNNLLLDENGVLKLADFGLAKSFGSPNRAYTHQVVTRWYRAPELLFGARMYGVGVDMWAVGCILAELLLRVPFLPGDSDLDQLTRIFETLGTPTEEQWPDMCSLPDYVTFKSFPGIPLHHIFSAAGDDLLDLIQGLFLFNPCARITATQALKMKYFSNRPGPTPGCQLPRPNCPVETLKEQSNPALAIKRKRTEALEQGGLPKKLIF
T2 sequence (P51946 whole entry partner): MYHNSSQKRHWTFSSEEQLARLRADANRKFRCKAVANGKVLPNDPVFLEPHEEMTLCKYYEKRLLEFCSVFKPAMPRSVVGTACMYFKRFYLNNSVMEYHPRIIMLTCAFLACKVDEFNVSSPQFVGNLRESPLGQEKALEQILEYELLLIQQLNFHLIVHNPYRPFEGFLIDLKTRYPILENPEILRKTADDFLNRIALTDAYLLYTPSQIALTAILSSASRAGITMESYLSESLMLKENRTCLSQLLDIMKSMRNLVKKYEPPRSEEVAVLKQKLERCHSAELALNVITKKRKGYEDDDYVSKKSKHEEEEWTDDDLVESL
T2 sequence (P51948 whole entry partner): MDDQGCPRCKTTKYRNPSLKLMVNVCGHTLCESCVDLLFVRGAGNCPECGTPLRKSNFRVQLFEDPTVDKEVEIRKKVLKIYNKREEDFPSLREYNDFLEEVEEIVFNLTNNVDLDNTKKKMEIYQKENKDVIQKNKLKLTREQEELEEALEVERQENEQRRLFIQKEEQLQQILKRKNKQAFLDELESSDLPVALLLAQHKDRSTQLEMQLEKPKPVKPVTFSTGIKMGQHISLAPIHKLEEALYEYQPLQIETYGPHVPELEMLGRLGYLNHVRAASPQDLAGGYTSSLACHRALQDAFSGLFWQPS
Experimental: as §1, §2

CDK2/CyclinA [2] = target: T3, CDK2/CyclinA (Homo sapiens, UniProt P24941); assay: LanthaScreen Eu Kinase Binding Assay, CDK2; conditions: tracer 236, read-out: Affinity (Kd) CDK2
T3 construct: purchased Proqinase
Experimental: as §1, §2

CDK9 = target: T4, CDK9 (Homo sapiens, UniProt P50750); assay: Lance Ultra KinaSelect Assay, CDK9; type: biochemical; conditions: read-out: Inhibition (IC50) CDK9
T4 construct: purchased Invitrogen
T4 sequence (P50750 whole entry): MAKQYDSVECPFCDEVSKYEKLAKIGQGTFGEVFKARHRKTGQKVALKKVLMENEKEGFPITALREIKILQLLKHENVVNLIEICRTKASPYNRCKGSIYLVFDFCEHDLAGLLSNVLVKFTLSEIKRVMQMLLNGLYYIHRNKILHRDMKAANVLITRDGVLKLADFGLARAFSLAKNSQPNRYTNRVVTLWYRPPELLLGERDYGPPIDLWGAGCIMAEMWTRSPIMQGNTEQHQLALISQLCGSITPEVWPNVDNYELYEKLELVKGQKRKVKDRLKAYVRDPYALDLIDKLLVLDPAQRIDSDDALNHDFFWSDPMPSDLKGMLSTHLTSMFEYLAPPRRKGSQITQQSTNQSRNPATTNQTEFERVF
Experimental: (§3) This protocol describes how the Lance Ultra KinaSelect Assay was performed to determine half maximal inhibitory concentration (IC50) of compounds of general formula (I) and CDK/Cyclin complexes. The principle behind this enzymatic assay is based upon the phosphorylation of the ULight-Peptide Substrat. It is detected by using a specific EU-labeled anti-phospho peptide antibody. The binding of the Eu-labeled anti-phospho peptide antibody to the phosphorylated U Light labeled peptide gives rise to a FRET-signal. Binding of an inhibitor to the kinase prevents phosphorylation of the ULight-MBP Substrat, resulting in a loss of FRET.
(§4) The compounds of general formula (I) summarized in Table 5 were diluted from a 10 mM DMSO stock solution 1:10 in a total volume of 15 μL DMSO. This compound predilution was then serial diluted 1:3 over 8 steps in DMSO and briefly spun down. Each compound solution was now diluted 1:20 in Enzymatic Buffer (HEPES: 50 mM, pH: 7.5; MgCl2: 10 mM; EGTA: 1 mM; DTT: 2 mM; Tween-20: 0.01%), mixed thoroughly and spun down. For every sample, 2 μL of the diluted compound were mixed with 6 μL CDK/Cyclin/Substrat solution and […] in a well of a small volume 384 well plate (Corning Incorporated, Corning, N.Y., USA; order no. 3673). […] For positive controls, in each well 2 μL of DMSO solution (1% final DMSO assay concentration) was mixed with 6 μL CDK/Cyclin/Substrat (appropriate final concentration see Table 3) and 2 μL Tracer ATP solution (appropriate final concentration see Table 3). Positive and negative controls were calculated from at least 8 different sample wells. The 384 well plates were mixed in a Teleshaker plate mixer (Beckman Coulter, Brea, Calif., USA) at 2000 rpm for 40 sec, and incubated for 1 h at room temperature. Before reading, 10 μL detection buffer (Lance Detection Buffer 1×; EDTA: […]; Eu-Anti-P-MBP: see Table 3) was added. The FRET signal was measured at 340 nm excitation, 665 nm and 615 nm emission (for the kinase tracer and LanthaScreen Eu-AB, respectively) with an Envision spectrophotometer (Perkin Elmer, Waltham, Mass., USA) with 50 μs delay and 300 μs integration time. IC50 values were determined from the sigmoidal dose response curves with the software Quattro Workflow (Quattro GmbH, Munich, Germany).

CDK2/CyclinA [3] = target: T3, CDK2/CyclinA; assay: Lance Ultra KinaSelect Assay, CDK2; type: biochemical; conditions: ATP 3 μM, read-out: Inhibition (IC50) CDK2
Experimental: as §3, §4

CDK7/CyclinH/Mat1 [4] = target: T2, CDK7/CyclinH/Mat1; assay: Lance Ultra KinaSelect Assay, CDK7; type: biochemical; conditions: ATP 25 μM, read-out: Inhibition (IC50) CDK7
Experimental: as §3, §4

CDK9/Cyclin K = target: T5, CDK9/Cyclin K (Homo sapiens, UniProt P50750); assay: LanthaScreen Eu Kinase Binding Assay, CDK9/Cyclin K; conditions: tracer 236, read-out: Affinity (Kd) CDK9/Cyclin K
T5 construct: purchased Invitrogen
T5 sequence (P50750 whole entry): as above
T5 sequence (O75909 whole entry partner): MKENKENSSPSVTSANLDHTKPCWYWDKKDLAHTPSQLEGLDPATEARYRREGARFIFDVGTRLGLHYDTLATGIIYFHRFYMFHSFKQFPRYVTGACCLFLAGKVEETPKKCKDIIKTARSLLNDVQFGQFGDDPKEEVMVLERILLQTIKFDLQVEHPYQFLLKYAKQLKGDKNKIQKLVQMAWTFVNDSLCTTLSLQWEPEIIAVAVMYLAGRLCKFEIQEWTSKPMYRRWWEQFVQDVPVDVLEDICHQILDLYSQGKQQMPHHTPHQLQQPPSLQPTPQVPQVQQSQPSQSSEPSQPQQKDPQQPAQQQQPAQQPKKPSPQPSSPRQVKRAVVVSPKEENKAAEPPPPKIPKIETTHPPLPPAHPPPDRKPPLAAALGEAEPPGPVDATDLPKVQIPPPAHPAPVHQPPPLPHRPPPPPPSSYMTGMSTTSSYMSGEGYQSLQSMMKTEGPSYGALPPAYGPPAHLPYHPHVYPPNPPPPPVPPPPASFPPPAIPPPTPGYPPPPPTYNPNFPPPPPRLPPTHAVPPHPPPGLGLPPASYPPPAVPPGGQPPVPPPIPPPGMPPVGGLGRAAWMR
Experimental: as §1, §2

CDK8/Cyclin C = target: T6, CDK8/Cyclin C (Homo sapiens, UniProt P49336); assay: LanthaScreen Eu Kinase Binding Assay, CDK8; conditions: tracer 236, read-out: Affinity (Kd) CDK8
T6 construct: purchased Invitrogen
T6 sequence (P49336 whole entry): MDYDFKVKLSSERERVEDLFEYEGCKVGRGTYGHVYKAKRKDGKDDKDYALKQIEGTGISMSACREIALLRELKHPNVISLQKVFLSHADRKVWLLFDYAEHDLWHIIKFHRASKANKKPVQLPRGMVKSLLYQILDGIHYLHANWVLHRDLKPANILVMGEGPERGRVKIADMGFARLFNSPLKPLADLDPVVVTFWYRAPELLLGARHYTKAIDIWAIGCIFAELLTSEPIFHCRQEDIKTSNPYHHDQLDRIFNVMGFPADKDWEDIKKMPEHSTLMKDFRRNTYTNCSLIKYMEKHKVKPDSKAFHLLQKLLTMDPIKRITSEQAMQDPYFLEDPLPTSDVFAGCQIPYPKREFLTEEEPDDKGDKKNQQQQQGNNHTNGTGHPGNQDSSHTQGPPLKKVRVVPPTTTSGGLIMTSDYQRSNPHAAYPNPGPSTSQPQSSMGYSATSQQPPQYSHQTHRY
T6 sequence (P24863 whole entry partner): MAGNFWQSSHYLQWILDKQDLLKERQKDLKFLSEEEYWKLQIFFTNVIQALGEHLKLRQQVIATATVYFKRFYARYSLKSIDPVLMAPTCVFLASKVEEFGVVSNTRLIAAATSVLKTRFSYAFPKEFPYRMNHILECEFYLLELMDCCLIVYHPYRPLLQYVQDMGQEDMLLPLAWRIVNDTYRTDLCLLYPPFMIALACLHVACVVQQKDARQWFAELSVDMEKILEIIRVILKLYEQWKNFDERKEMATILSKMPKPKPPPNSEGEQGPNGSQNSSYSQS
Experimental: as §1, §2

[5] = system: NF-kappaB reporter gene activation in HEK293 cells; assay: NF-kappaB reporter assay; type: cell-based; conditions: Homo sapiens, 20 ng/ml TNF alpha, 5 h
Experimental: Cells were maintained in RPMI cell culture medium+glutamine (PAN Biotech GmbH, Aidenbach, Germany) supplemented with 10% fetal calf serum (PAA Laboratories GmbH, Pasching, Austria) and grown at 37° C., 5% CO2. HEK293 cells grown to 50% confluence were transfected with the Amaxa® Cell Line Nucleofector® Kit V (Lonza, Basel, Switzerland, catalog #VCA-1003). Transfections were performed according to manufacturer's optimized protocol for transfection of HEK293 cells. In brief, 2×10^5 cells were transfected with 5 μg highly purified plasmid DNA. Cells were transfected with a NF-kappa B reporter plasmid (pNFkBluc), pTALluc for control, or pMAXGFP for transfection control. After transfection, cells were taken up in 500 μL RPMI1640 cell culture medium, incubated for 1 h at 37° C., and 4.5 ml DMEM without phenol red were added per transfection. Transfected cells were seeded in 96 well plates (Greiner Bio-One, Frickenhausen, Germany, catalog #655098) with 100 μL cell suspension per well and incubated for 48 h. To each well, 100 μL DMEM with 2× concentrated compound diluted from 10 mM DMSO stocks, or 100 μL DMEM with 0.4% DMSO for control wells, was added. The compounds of general formula (I) summarized in Table 6 were used in this assay. Cells were stimulated with 20 ng/ml TNF alpha, and plates were incubated for 5 h at 37° C./5% CO2. Cell culture supernatants were removed to leave 100 μl medium per well, followed by addition of 100 μl Bright Glo luciferase assay reagent (Promega, Madison, Wis., USA, catalog #E2620), and shaking for 5 minutes in the dark. Luminescence was measured with a Victor Photospectrometer (Perkin Elmer, Waltham, Mass., USA). […], values were calculated with the software Excel Fit (IDBS, Guildford, UK) from 2-fold dilution series comprising at least 10 concentrations in duplicates.

[6] = system: RNA Polymerase II Ser2 phosphorylation (cellular CDK9 activity) in HCT-116 cells; assay: RNA-Polymerase II Ser2 cellular phosphorylation assay; type: cell-based; conditions: Homo sapiens, normalized with tubulin
Experimental: HCT-116 cells (DSMZ, Braunschweig, Germany) were maintained in Mc Coy's cell culture medium+glutamine (PAN Biotech GmbH, Aidenbach, Germany) supplemented with 10% fetal calf serum (PAA Laboratories GmbH, Pasching, Austria) and grown at 37° C., 5% CO2. For the cellular phosphorylation assay, cells were seeded with 2×10^5 cells/well/1 ml in 24-well plates (Greiner Bio—One, Frickenhausen, Germany; catalog #662160). The compounds of general formula (I) summarized in Table 6 were diluted from a 10 mM DMSO stock solution 1:10 in a total volume of 15 μL DMSO. After overnight incubation at 37° C./5% CO2, 1.5 μL of a compound diluted in DMSO was added to each sample well. Wells with cells and 0.15% DMSO in culture medium were used as positive controls, wells without cells and 0.15% DMSO in culture medium were used as negative controls. The cells were incubated with the compounds for 72 h at 37° C./5% CO2. Before lysis, cells were washed with phosphate buffered saline. Phosphorylation of RNA Polymerase II Ser2 and tubulin levels for normalization were analyzed afterwards with the Multi-Array technology (Meso Scale Discovery, Gaithersburg, Md., USA), a combination of antibody coupled electrochemiluminescence detection and patterned arrays. Manufacturer's instructions were followed and all solutions were purchased from Meso Scale Discovery. In brief, cells were lysed by 30 min incubation in CLB1 lysis buffer (Zeptosens, Witterswil, Switzerland; 60 μL per well), and supernatants were cleared by centrifugation. For analysis of RNA Polymerase II Ser2-phosphorylation, lysates were diluted 1:50 with Meso Scale Lysis Buffer supplemented with phosphatase- and protease-inhibitors, and 25 µL of each sample was pipetted in a well of a MSD Multi-Array 96-Well Plate Sector® Imager High Bind Plate (Meso Scale Discovery; catalog #L15XB-3/L11XB-3), and incubated for 2 h at room temperature. […] Meso Scale Tris Wash Buffer supplemented with 3% w/v Meso Scale Blocker A were added per well, then plates were sealed and incubated 1 h with vigorous shaking. Plates were washed with 1× Tris Wash Buffer (10× Meso Scale Wash Buffer diluted 1:10 in destilled water), 25 μL of antibody solution was added (CTD7 3E10 antibody from Helmholtz Zentrum Munich, Germany, diluted 1:100 in Meso Scale Tris Wash Buffer supplemented with 1% w/v Meso Scale Blocker A), and plates were washed three times in 1× Tris Wash Buffer. 25 μL of MSD® SULFO-TAG™ Goat-Anti-Rat-Antibody (Meso Scale Discovery, catalog #R^32AH-1, diluted 1:125 in Tris Wash Buffer with 1% (w/v) blocker A) were added per well, plates were sealed and incubated with vigorous shaking for 1 h at room temperature. Finally, plates were washed three times with Tris Wash Buffer, 150 μl 2× Read Buffer (Meso Scale Discovery) were added per well and plates were analyzed immediately in a Sector Imager from Meso Scale Discovery. For determination of tubulin protein levels, samples were analyzed with the protocol for RNA Polymerase II Ser2-phosphorylation, with an anti-tubulin antibody (rabbit; BIODESIGN International, catalog #T59840R, diluted 1:100) and a MSD® SULFO-TAG™ […] (Meso Scale Discovery, catalog #R^32AH-1, diluted 1:125). RNA Polymerase II Ser2 phosphorylation was normalized with tubulin protein levels, and EC50 values were calculated with the software XLFit (IDBS, Guildford, UK) from 2-fold dilution series comprising 6 concentrations in duplicates.

T1 sequence (P50750 whole entry): as the sequence (P50750 whole entry) above
T1 sequence (O60563 whole entry partner): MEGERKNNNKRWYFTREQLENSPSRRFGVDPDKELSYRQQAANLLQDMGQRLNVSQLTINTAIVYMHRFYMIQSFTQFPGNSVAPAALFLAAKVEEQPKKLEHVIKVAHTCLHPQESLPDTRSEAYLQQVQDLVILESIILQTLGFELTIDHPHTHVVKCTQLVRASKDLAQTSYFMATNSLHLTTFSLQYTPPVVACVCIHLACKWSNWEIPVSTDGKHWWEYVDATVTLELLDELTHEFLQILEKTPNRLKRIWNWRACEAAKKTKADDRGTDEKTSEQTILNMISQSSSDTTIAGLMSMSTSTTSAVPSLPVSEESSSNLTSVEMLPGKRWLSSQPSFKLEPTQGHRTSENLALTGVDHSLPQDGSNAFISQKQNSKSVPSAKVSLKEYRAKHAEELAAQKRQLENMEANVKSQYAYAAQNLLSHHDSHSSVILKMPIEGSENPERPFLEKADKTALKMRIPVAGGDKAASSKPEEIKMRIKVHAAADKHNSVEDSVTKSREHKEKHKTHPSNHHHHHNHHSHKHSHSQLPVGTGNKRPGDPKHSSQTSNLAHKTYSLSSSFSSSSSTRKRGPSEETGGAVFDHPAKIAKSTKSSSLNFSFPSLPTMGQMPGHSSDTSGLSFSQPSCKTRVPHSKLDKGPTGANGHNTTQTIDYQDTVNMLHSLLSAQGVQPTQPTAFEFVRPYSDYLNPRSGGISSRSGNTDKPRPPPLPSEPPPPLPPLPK

SMILES	Kd (CDK9/Cyclin T1) [nM]	Kd (CDK7/CyclinH/Mat1 [1]) [nM]	Kd (CDK2/CyclinA [2]) [nM]	IC50 (CDK9) [nM]	IC50 (CDK2/CyclinA [3]) [nM]	IC50 (CDK7/CyclinH/Mat1 [4]) [nM]	Kd (CDK9/Cyclin K) [nM]	Kd (CDK8/Cyclin C) [nM]	IC50 [5] [nM]	IC50 [6] [nM]
COc1ccccc1-c1ncnc(Nc2ccc(CS(N)(=O)=O)cc2)n1 [Compound T1, 4-[(4-(2-Methoxyphenyl)-1,3,5-triazin-2-yl)amino]benzenemethanesulfonamide]	43.7	> 10000	237	190	259	> 10000				
COc1ccccc1-c1ncnc(Nc2cccc(S(C)(=O)=O)c2)n1 [Compound S1, 4-(2-Methoxyphenyl)-N-(3-(methylsulfonyl)phenyl)-1,3,5-triazin-2-amine]	6.9	> 10000	851	24.7	1770	> 10000				
NS(=O)(=O)Cc1cccc(Nc2ncnc(-c3cccc4c3OCO4)n2)c1 [Compound B15, 3-[(4-(1,3-Benzodioxol-4-yl)-1,3,5-triazin-2-yl)amino]benzenemethanesulfonamide]	141	> 10000	6460				2460	> 10000		
COc1ccncc1-c1ncnc(Nc2cccc(CS(N)(=O)=O)c2)n1 [Compound B18, 3-[(4-(4-Methoxypyridin-3-yl)-1,3,5-triazin-2-yl)amino]benzenemethanesulfonamide]	104	> 10000					302	1760		
Nc1ccc(-c2ncnc(Nc3cccc(CS(N)(=O)=O)c3)n2)cn1 [Compound B23, 3-[(4-(6-Aminopyridin-3-yl)-1,3,5-triazin-2-yl)amino]benzenemethanesulfonamide]	99	> 10000					26.2		> 30000	> 30000
COc1ccc(Cl)cc1-c1ncnc(Nc2cccc(CS(N)(=O)=O)c2)n1 [Compound B7, 3-[(4-(5-Chloro-2-methoxyphenyl)-1,3,5-triazin-2-yl)amino]benzenemethanesulfonamide]	55	> 10000					101	> 10000		
